Drawing on patent US8575185B2, “Compositions, synthesis, and methods of utilizing quinazolinedione derivatives” (Reviva Pharmaceuticals, Inc., priority 2009, dated 2013), this text covers IC50 and Ki for three compounds.

Where a name gives a salt, the structure may show the parent alone.

Test [1] has as its target T1, dopamine-D2 short (D2S) receptor (Homo sapiens, UniProt P14416).
T1 construct: expressed in transfected cells; host or cells: CHO cells
Nature of the test: Dopamine, D2s (Human Recombinant) Binding Assay. The settings on record: human recombinant in CHO cells, [3H]Spiperone. The protocol: Dopamine, D2s (Human Recombinant) Binding Assay
Receptor Source Human recombinant expressed in CHO cells
Radioligand: [^3H]Spiperone (20-60 Ci/mmol)
Control Compound Haloperidol
Incubation Conditions The reactions were carried out in 50 mM TRIS-HCl (pH 7.4) containing 120 mM NaCl, 5 mM KCl, 5 mM MgCl2, 1 mM EDTA for 60 minutes at 25 C. The reaction was terminated by rapid vacuum filtration onto glass fiber filters. Radioactivity trapped onto the filters was determined and compared to control values in order to ascertain any interactions of test compounds with the cloned dopamine-D2 short binding site (Literature Reference: Jarvis, K. R. et al. Journal of Receptor Research 1993, 13(1-4), 573-590; Gundlach, A. L. et al. Life Sciences 1984, 35, 1981-1988.)
(§1) The radioligand binding assays for dopamine-D2S, serotonin-5HT1A and serotonin-5HT2A were carried out at six different concentrations and the test concentrations were 0.5 nM, 1 nM, 10 nm, 100 nM, 300 nM and 1000 nM.

For test [2], the target named is T2, serotonin 5-HT1A receptor (Homo sapiens, UniProt P08908).
T2 construct: expressed in transfected cells; host or cells: HEK-293 cells
T2 sequence (P08908 1-422): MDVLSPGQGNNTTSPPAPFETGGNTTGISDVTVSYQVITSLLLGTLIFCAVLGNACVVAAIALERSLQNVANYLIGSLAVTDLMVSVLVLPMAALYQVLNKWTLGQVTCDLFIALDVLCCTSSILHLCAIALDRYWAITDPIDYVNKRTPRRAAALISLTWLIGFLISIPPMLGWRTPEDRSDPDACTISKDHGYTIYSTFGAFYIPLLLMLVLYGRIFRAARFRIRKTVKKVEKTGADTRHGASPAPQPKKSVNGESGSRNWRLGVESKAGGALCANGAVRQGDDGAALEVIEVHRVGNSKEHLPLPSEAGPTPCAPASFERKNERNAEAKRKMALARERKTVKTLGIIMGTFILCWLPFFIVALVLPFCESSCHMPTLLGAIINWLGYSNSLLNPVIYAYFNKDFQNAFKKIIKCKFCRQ
Kind of test: Serotonin, 5HT1A (Human Recombinant) Binding Assay. The settings on record: human recombinant in HEK-293 cells, [3H]-8-OH-DPAT. As for the experimental part:
Serotonin, 5HT1A (Human Recombinant) Binding Assay
Receptor Source Human recombinant expressed in HEK-293 cells
Radioligand: [^3H]-8-OH-DPAT (221 Ci/mmol)
Control Compound: 8-OH-DPAT
Incubation Conditions The reactions were carried out in 50 mM TRIS-HCl (pH 7.4) containing 10 mM MgSO4, 0.5 mM EDTA and 0.1% Ascorbic acid at room temperature for 1 hour. The reaction was terminated by rapid vacuum filtration onto glass fiber filters. Radioactivity trapped onto the filters was determined and compared to control values in order to ascertain any interactions of test compounds with the cloned serotonin-5HT1A binding site (Literature Reference: Hoyer, D. et al. Eur. Journal Pharmacol. 1985, 118, 13-23; Schoeffter, P. and Hoyer, D. Naunyn-Schmiedeberg's Arch. Pharmac. 1989, 340, 135-138)
as §1

Test [3] addresses T3, serotonin 5-HT2A receptor (Homo sapiens, UniProt P28223).
T3 construct: Receptor Source Human Cortex; from tissue; host or cells: human cortex
Nature of the test: Serotonin, 5HT2a (Human) Binding Assay. The note with it: human cortex, [3H]-Ketanserin. The protocol:
Serotonin, 5HT2a (Human) Binding Assay
Receptor Source Human Cortex
Radioligand: [^3H]-Ketanserin (60-90 Ci/mmol)
Control Compound Ketanserin
Incubation Conditions: The reactions were carried out in 50 mM TRIS-HCl (pH 7.6) at room temperature for 90 minutes. The reaction was terminated by rapid vacuum filtration onto glass fiber filters. Radioactivity trapped onto the filters was determined and compared to control values in order to ascertain any interactions of test compounds with the serotonin-5HT2A binding site (Literature Reference: Leysen, J. E. et al. Mol. Pharmacol. 1982, 21, 301-314; Martin, G. R. and Humphrey, P. P. A. Neuropharmacol. 1994, 33(3/4), 261-273.)
as §1

T3 sequence (P28223 whole entry): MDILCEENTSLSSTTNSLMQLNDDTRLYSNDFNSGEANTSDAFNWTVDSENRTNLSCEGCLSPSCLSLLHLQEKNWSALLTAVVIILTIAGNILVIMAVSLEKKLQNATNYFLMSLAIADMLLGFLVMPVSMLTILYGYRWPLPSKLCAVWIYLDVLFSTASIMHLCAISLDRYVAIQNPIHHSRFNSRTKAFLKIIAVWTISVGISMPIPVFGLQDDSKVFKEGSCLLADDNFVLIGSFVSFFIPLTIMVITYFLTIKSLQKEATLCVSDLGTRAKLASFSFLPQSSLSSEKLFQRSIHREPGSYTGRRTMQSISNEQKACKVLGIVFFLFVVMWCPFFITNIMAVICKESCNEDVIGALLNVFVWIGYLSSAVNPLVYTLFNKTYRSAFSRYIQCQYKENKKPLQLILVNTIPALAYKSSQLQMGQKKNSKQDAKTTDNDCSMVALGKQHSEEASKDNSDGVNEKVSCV
T1 sequence (P14416 1-414 isoform P14416-2): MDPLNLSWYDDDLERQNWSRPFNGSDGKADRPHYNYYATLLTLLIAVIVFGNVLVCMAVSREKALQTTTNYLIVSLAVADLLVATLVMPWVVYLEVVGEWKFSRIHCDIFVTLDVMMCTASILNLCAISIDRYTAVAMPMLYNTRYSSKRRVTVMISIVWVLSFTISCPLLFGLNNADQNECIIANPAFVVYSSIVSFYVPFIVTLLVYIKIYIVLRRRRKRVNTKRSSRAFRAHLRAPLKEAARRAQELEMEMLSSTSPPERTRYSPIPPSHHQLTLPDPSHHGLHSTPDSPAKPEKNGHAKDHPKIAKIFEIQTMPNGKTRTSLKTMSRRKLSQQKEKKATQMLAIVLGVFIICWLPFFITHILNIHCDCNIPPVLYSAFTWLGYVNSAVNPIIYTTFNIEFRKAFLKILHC

For `COc1ccccc1N1CCN(CCCCOc2ccc3c(=O)[nH]c(=O)[nH]c3c2)CC1` [Compound 10a, 7-(4-(4-(2-Methoxyphenyl)piperazin-1-yl)butoxy)quinazoline-2,4(1H, 3H)-dione hydrochloride], the IC50 (usually the concentration that inhibits the measured activity by half) was 2.5 nM in test [1], 1.09 nM in test [2] and 268 nM in test [3]. The Ki (as a rule, a dissociation constant, usually derived from enzyme kinetics or from competition with a known ligand) in test [1] was found to be 0.74 nM; in test [2], 0.66 nM; in test [3], 131 nM.

For `O=c1[nH]c2ccccc2c(=O)n1CCCCN1CCN(c2cccc(Cl)c2Cl)CC1` [Compound 17b, 3-(4-(4-(2,3-Dichlorophenyl)piperazin-1-yl)butyl)quinazoline-2,4(1H, 3H)-dione hydrochloride], the IC50 in test [1] amounted to 6.35 nM; in test [2], 0.95 nM; in test [3], 82.6 nM. Moreover, the results for the Ki in test [1], in test [2] and in test [3] were 1.87 nM, 0.58 nM and 40.5 nM, respectively.

Consider `O=c1[nH]c(=O)c2ccc(OCCCCN3CCN(c4cccc(Cl)c4Cl)CC3)cc2[nH]1` [Compound 10b, 7-(4-(4-(2,3-Dichlorophenyl)piperazin-1-yl)butoxy)quinazoline-2,4(1H, 3H)-dione hydrochloride], for which the IC50 turned out to be 1.35 nM in test [1], 1.63 nM in test [2] and 38.3 nM in test [3]. Besides, the Ki in test [1] was 0.43 nM; in test [2], 0.99 nM; in test [3], 20.4 nM.
